Data from ChEMBL document CHEMBL4609983, “Pan-specific and partially selective dye-labeled peptidic inhibitors of the polycomb paralog proteins” (Bioorg Med Chem, 2020).
Non-standard residues stand in square brackets, D forms with d. Residues, ends and D or L forms follow the SMILES beside them. *: point of attachment. X1 = O=C(O)c1cc(NC(=S)*)ccc1-c1c2ccc(=O)cc-2oc2cc(O)ccc12; Lys(Me3) = C[N+](C)(C)CCCC[C@H](N)C(=O)O; Benzoyl(4-Br) = O=C(c1ccc(Br)cc1)*

What was measured:
Homo sapiens [1] = species: Homo sapiens; experiment: Selectivity ratio of IC50 for CBX6 (unknown origin) to IC50 for CBX7 (unknown origin)
[2] = molecular target: T1, Chromobox protein homolog 6 (Homo sapiens, UniProt O95503); experiment: Inhibition of CBX6 (unknown origin) assessed as […] by competitive FP assay
T1 sequence (O95503 whole entry): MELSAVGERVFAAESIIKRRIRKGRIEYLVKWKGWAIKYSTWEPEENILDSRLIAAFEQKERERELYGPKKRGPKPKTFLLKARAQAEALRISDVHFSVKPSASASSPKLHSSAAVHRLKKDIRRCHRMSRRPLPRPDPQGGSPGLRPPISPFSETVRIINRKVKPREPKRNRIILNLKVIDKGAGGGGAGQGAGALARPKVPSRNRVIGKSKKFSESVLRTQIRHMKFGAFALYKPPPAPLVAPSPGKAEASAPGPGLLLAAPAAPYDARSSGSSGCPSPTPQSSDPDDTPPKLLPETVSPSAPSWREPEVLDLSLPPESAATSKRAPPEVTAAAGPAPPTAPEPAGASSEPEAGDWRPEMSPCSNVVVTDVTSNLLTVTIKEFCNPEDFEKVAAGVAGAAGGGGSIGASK

[3] = molecular target: T2, Chromobox protein homolog 7 (Homo sapiens, UniProt O95931); experiment: Inhibition of CBX7 (unknown origin) assessed as […] by competitive FP assay
T2 sequence (O95931 whole entry): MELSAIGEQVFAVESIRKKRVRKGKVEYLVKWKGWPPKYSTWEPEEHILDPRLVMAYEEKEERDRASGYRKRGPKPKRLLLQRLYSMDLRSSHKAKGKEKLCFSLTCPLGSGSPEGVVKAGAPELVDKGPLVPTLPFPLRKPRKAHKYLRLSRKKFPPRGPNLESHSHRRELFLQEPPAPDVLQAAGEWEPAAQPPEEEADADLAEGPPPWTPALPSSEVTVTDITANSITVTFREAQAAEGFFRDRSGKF

Homo sapiens [4] = species: Homo sapiens; experiment: Selectivity ratio of IC50 for CBX8 (unknown origin) to IC50 for CBX7 (unknown origin)
[5] = molecular target: T3, Chromobox protein homolog 8 (Homo sapiens, UniProt Q9HC52); experiment: Inhibition of CBX8 (unknown origin) assessed as […] by competitive FP assay
T3 sequence (Q9HC52 whole entry): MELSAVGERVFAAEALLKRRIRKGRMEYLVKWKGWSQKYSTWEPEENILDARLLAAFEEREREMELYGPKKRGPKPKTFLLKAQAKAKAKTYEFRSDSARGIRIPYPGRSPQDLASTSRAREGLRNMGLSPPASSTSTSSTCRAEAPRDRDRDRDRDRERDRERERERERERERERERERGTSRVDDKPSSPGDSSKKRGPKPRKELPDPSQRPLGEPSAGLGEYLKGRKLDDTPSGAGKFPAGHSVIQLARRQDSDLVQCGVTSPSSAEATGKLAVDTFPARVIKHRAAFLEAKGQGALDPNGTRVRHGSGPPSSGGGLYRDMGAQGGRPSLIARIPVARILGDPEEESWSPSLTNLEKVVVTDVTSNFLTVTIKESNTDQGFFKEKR

[6] = molecular target: Chromobox protein homolog 1 (Homo sapiens, UniProt P83916); experiment: Binding affinity to CBX1 (unknown origin) assessed as dissociation constant by fluorescence polarization analysis
Sequence of Chromobox protein homolog 1 (P83916 whole entry): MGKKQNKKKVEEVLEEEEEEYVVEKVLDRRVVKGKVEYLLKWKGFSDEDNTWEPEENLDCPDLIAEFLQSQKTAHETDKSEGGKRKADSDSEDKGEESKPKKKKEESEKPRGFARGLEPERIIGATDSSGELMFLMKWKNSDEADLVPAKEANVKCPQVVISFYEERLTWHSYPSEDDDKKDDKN

[7] = molecular target: T3, Chromobox protein homolog 8; experiment: Binding affinity to CBX8 (unknown origin) assessed as dissociation constant by fluorescence polarization analysis
[8] = molecular target: T1, Chromobox protein homolog 6; experiment: Binding affinity to CBX6 (unknown origin) assessed as dissociation constant by fluorescence polarization analysis
[9] = molecular target: T2, Chromobox protein homolog 7; experiment: Binding affinity to CBX7 (unknown origin) assessed as dissociation constant by fluorescence polarization analysis
TOV21G = experiment: Decrease in cell viability in human TOV21G cells by MTT assay; format: cell-based
[10] = Drug uptake in human PC3 cells assessed as endosomal entrapment by measuring characteristic punctate dots in the cytoplasm at 10 uM by cell imaging analysis; format: ADME, cell-based; details: pc-3, 10 µM
[11] = Drug uptake in cytoplasm of human TOV21G cells by live cell imaging analysis; format: ADME, cell-based
[12] = Drug uptake in human TOV21G cells assessed as endosomal entrapment by measuring characteristic punctate dots in the cytoplasm at 10 uM by cell imaging analysis; format: ADME, cell-based
[13] = Drug uptake in nucleus of human PC3 cells by live cell imaging analysis; format: ADME, cell-based; details: pc-3
[14] = Drug uptake in nucleus of human TOV21G cells by live cell imaging analysis; format: ADME, cell-based
[15] = Drug uptake in cytoplasm of human PC3 cells by live cell imaging analysis; format: ADME, cell-based; details: pc-3

Row | Ratio IC50 (Homo sapiens [1]) | IC50 [2] [nM] | IC50 [3] [nM] | Ratio IC50 (Homo sapiens [4]) | IC50 [5] [nM] | Kd [6] [nM] | Kd [7] [nM] | Kd [8] [nM] | Kd [9] [nM] | Drug uptake [10] | Drug uptake [11] | Drug uptake [12] | Drug uptake [13] | Drug uptake [14] | Drug uptake [15] | Compound | Activity (TOV21G)
1 | 7 | 16000 | 2300 | 18 | 42000 |  |  |  |  |  |  |  |  |  |  | C[C@H](NC(=O)[C@H](Cc1ccccc1)NC(=O)c1ccc(Br)cc1)C(=O)N[C@@H](Cc1ccc(O)cc1)C(=O)N[C@@H](CCCC[N+](C)(C)C)C(=O)N[C@@H](CO)C(N)=O ({Benzoyl(4-Br)}-FAY[Lys(Me3)]S-NH2) | 
2 |  |  |  |  |  | 1750 | 890 | 78 | 11 |  |  |  |  |  |  | CC(C)C[C@H](NC(=O)[C@H](CO)NC(=O)[C@H](CCCC[N+](C)(C)C)NC(=O)[C@H](Cc1ccc(O)cc1)NC(=O)[C@H](C)NC(=O)[C@H](Cc1ccccc1)NC(=O)c1ccc(Br)cc1)C(=O)N[C@@H](CCCCNC(=S)Nc1ccc(-c2c3ccc(=O)cc-3oc3cc(O)ccc23)c(C(=O)O)c1)C(N)=O ({Benzoyl(4-Br)}-FAY[Lys(Me3)]SLK(X1)-NH2) | 
3 |  | 13000 | 1100 |  | 19000 |  |  |  |  |  |  |  |  |  |  | CC(C)C[C@H](NC(=O)[C@H](CO)NC(=O)[C@H](CCCC[N+](C)(C)C)NC(=O)[C@H](Cc1ccc(O)cc1)NC(=O)[C@H](C)NC(=O)[C@H](Cc1ccccc1)NC(=O)c1ccc(Br)cc1)C(N)=O ({Benzoyl(4-Br)}-FAY[Lys(Me3)]SL-NH2) | Non-Toxic
4 |  |  |  |  |  | 4750 | 624 | 47 | 12 | Active | Not Active | Active | Not Active | Not Active | Not Active | C[C@H](NC(=O)[C@H](Cc1ccccc1)NC(=O)c1ccc(Br)cc1)C(=O)N[C@@H](Cc1ccc(O)cc1)C(=O)N[C@@H](CCCC[N+](C)(C)C)C(=O)N[C@@H](CO)C(=O)N[C@@H](CCC(=O)O)C(=O)N[C@@H](CCCCNC(=S)Nc1ccc(-c2c3ccc(=O)cc-3oc3cc(O)ccc23)c(C(=O)O)c1)C(N)=O ({Benzoyl(4-Br)}-FAY[Lys(Me3)]SEK(X1)-NH2) | Toxic
5 |  | 6000 | 2000 |  | 12000 |  |  |  |  |  |  |  |  |  |  | C[C@H](NC(=O)[C@H](Cc1ccccc1)NC(=O)c1ccc(Br)cc1)C(=O)N[C@@H](Cc1ccc(O)cc1)C(=O)N[C@@H](CCCC[N+](C)(C)C)C(=O)N[C@@H](CO)C(=O)N[C@@H](CCC(=O)O)C(N)=O ({Benzoyl(4-Br)}-FAY[Lys(Me3)]SE-NH2) | Non-Toxic
